{"source": "patent US6064908A", "about": "“Device for ionophoresis comprising at least a membrane electrode assembly, for the transcutaneous administration of active principles to a subject” (Elf Aquitaine, priority 1996, dated 2000)", "key": {"[1]": {"assay": "administration of pentasaccharide sodium salt in mini pigs by iontophoresis at set current density; antifactor Xa plasma levels", "format": "in vivo, mini pigs of the YUCATAN strain", "experimental": "Administration in mini pigs of pentasaccharide sodium salt by iontophoresis at a set current density.\nSpecialists consider mini pigs of the YUCATAN strain to be an excellent animal model for studying the administration in man of medicaments by iontophoresis. This is because the skin structure of this animal is very similar to that of human skin.\nThe following tests were carried out on the aforementioned mini pig with the aim of comparing the administration by iontophoresis of the sodium salt of the pentasaccharide used in Example 1 with administration by subcutaneous injection.\nFor these tests, pairs of adhesive electrode assemblies were formed, each pair comprising a donor electrode assembly, equipped with a reversible negative electrode (active electrode) and containing the pentasaccharide to be administered, and a passive electrode assembly formed by a positive electrode (back electrode) in contact with a second reservoir element containing an arbitrary (i.e. indifferent) electrolyte.\nIn the donor electrode assembly according to the invention, as well as in the reference donor assembly, the electrode 6 made of chloridized silver contained a quantity of silver chloride equivalent to 1.8 mAh/cm^2, thus allowing the electrode to sustain the quantity of electricity flowing through the electrodes over the duration of the iontophoretic treatment, namely 0.88 mAh/cm^2.\nThe primary electrolyte medium constituting the primary reservoir element 11 of the donor electrode assembly according to the invention, as well as the conducting, absorbent, porous material forming the reservoir element 11 of the reference electrode assembly, each consisted of a sheet of blotting paper made of cellulose fibres supplemented by polypropylene fibrils, having a surface area of 20 cm^2 and a thickness of 0.5 mm and being impregnated, to a level of 50 mg/cm^2, with an aqueous solution containing 2% by weight of pentasaccharide. Each reservoir element 11 contained in total 1 g of solution, i.e. 20 mg of pentasaccharide over 20 cm^2 of active surface (1 mg/cm^2). 20 mg of pentasaccharide were therefore employed in total per animal.\nThe selectively permeable membrane separating the recesses 2 and 15 of the donor electrode assembly according to the invention, that is to say separating the primary 11 and secondary 20 reservoir elements of the said electrode assembly, consisted of a 50 μm thick film of the polyether block amide PEBAX MV 1041 defined in Example 1.\nIn each passive electrode assembly, the positive electrode (back electrode) made of chloridized silver contained a quantity of silver chloride equivalent to 0.1 mAh/cm^2 and the reservoir element associated with this electrode consisted of a sheet of blotting paper made of cellulose fibres supplemented by polypropylene fibrils having a surface area of 20 cm^2 and a thickness of 0.5 mm and was impregnated with an aqueous solution of NaCl to contain 6% by weight of this salt.\nAn electric signal generator which could be connected to the electrodes of each pair of electrode assemblies, made it possible to deliver a continuous electric signal of controlled intensity between the said electrodes.\nFive days before each test, the animals were catheterized in the two jugulars, as is well known for any experimentation in medicament administration, in order to make it possible to take regular blood samples intended for assaying the antifactor Xa activities and thereby to evaluate the quantities of active principle that pass through the skin to enter the circulatory system and therefore to check the effectiveness of the iontophoretic treatment.\nThe animals, fasted from the day before the experiments, were placed in specialized hammocks. […]"}, "factor Xa": {"test_system": "factor Xa", "assay": "antifactor Xa activity of the active principle", "format": "biochemical", "conditions": "sodium salt", "experimental": "The assay of the pentasaccharide in the receiver compartment was based on investigating its antifactor Xa activity. The assay was carried out either directly on the medium sample from the receiver compartment or after dilution, using a ROTACHROM HEPARIN 8® assay kit, with a complementary buffer for the assay instrument and the bovine antithrombin III, these various elements being supplied by the company STAGO, using a HITACHI 717 assay instrument. The calibration curve was established using a \"Golden Standard\" pentasaccharide solution to which an antifactor Xa activity equal to 13 units per ml was assigned."}}, "data": [{"smiles": "O=C(O)C1OC(OC2C(COS(=O)(=O)O)OC(OC3C(C(=O)O)OC(OC4C(COS(=O)(=O)O)OC(O)C(NS(=O)(=O)O)C4O)C(OS(=O)(=O)O)C3O)C(NS(=O)(=O)O)C2OS(=O)(=O)O)C(O)C(O)C1OC1OC(COS(=O)(=O)O)C(O)C(O)C1NS(=O)(=O)O", "note": "(stereo not shown) [pentasaccharide]", "values": [{"measurement": "bioavailability for the in-vivo tests vs in-vitro utilization factors", "setting": "[1]; Example 2 vs Example 1", "value": "higher than the utilization factors which were obtained for the in-vitro tests"}, {"measurement": "Bioavailability", "setting": "[1]; Test 2a: passive, no current", "value": 0, "unit": "%"}, {"measurement": "plasma level, Antifactor Xa", "setting": "[1]; Test 2a: passive, no current, 0 h", "value": 0, "unit": "units/ml"}, {"measurement": "plasma level, Antifactor Xa", "setting": "[1]; Test 2a: passive, no current, 0.25 h", "value": 0, "unit": "units/ml"}, {"measurement": "plasma level, Antifactor Xa", "setting": "[1]; Test 2a: passive, no current, 0.50 h", "value": 0, "unit": "units/ml"}, {"measurement": "plasma level, Antifactor Xa", "setting": "[1]; Test 2a: passive, no current, 1.00 h", "value": 0, "unit": "units/ml"}, {"measurement": "plasma level, Antifactor Xa", "setting": "[1]; Test 2a: passive, no current, 2.00 h", "value": 0, "unit": "units/ml"}, {"measurement": "plasma level, Antifactor Xa", "setting": "[1]; Test 2a: passive, no current, 4.00 h", "value": 0, "unit": "units/ml"}, {"measurement": "plasma level, Antifactor Xa", "setting": "[1]; Test 2a: passive, no current, 6.00 h", "value": 0, "unit": "units/ml"}, {"measurement": "plasma level, Antifactor Xa", "setting": "[1]; Test 2a: passive, no current, 8.00 h", "value": 0, "unit": "units/ml"}, {"measurement": "plasma level, Antifactor Xa", "setting": "[1]; Test 2a: passive, no current, 10.00 h", "value": 0, "unit": "units/ml"}, {"measurement": "plasma level, Antifactor Xa", "setting": "[1]; Test 2a: passive, no current, 16.00 h", "value": 0, "unit": "units/ml"}, {"measurement": "plasma level, Antifactor Xa", "setting": "[1]; Test 2a: passive, no current, 24.00 h", "value": 0, "unit": "units/ml"}, {"measurement": "plasma level, Antifactor Xa", "setting": "[1]; Test 2a: passive, no current, 30.00 h", "value": 0, "unit": "units/ml"}, {"measurement": "plasma levels (antifactor Xa), invention vs reference iontophoresis", "setting": "[1]; Test 2b vs Test 2c", "value": "more than three times higher"}, {"measurement": "plasma level, Antifactor Xa", "setting": "[1]; Test 2b: iontophoresis, PEBAX MV 1041 membrane, 20 mg, 8 hours", "value": 1, "unit": "units/ml"}, {"measurement": "plasma level, Antifactor Xa", "setting": "[1]; Test 2b: iontophoresis, PEBAX MV 1041 membrane, 20 mg, 8 hours, 0 h", "value": 0, "unit": "units/ml"}, {"measurement": "plasma level, Antifactor Xa", "setting": "[1]; Test 2b: iontophoresis, PEBAX MV 1041 membrane, 20 mg, 8 hours, 0.25 h", "value": 0.07, "unit": "units/ml"}, {"measurement": "plasma level, Antifactor Xa", "setting": "[1]; Test 2b: iontophoresis, PEBAX MV 1041 membrane, 20 mg, 8 hours, 0.50 h", "value": 0.14, "unit": "units/ml"}, {"measurement": "plasma level, Antifactor Xa", "setting": "[1]; Test 2b: iontophoresis, PEBAX MV 1041 membrane, 20 mg, 8 hours, 1.00 h", "value": 0.36, "unit": "units/ml"}, {"measurement": "plasma level, Antifactor Xa", "setting": "[1]; Test 2b: iontophoresis, PEBAX MV 1041 membrane, 20 mg, 8 hours, 2.00 h", "value": 0.81, "unit": "units/ml"}, {"measurement": "plasma level, Antifactor Xa", "setting": "[1]; Test 2b: iontophoresis, PEBAX MV 1041 membrane, 20 mg, 8 hours, 4.00 h", "value": 1.3, "unit": "units/ml"}, {"measurement": "plasma level, Antifactor Xa", "setting": "[1]; Test 2b: iontophoresis, PEBAX MV 1041 membrane, 20 mg, 8 hours, 6.00 h", "value": 0.98, "unit": "units/ml"}, {"measurement": "plasma level, Antifactor Xa", "setting": "[1]; Test 2b: iontophoresis, PEBAX MV 1041 membrane, 20 mg, 8 hours, 10.00 h", "value": 0.79, "unit": "units/ml"}, {"measurement": "plasma level, Antifactor Xa", "setting": "[1]; Test 2b: iontophoresis, PEBAX MV 1041 membrane, 20 mg, 8 hours, 16.00 h", "value": 0.38, "unit": "units/ml"}, {"measurement": "plasma level, Antifactor Xa", "setting": "[1]; Test 2b: iontophoresis, PEBAX MV 1041 membrane, 20 mg, 8 hours, 24.00 h", "value": 0.12, "unit": "units/ml"}, {"measurement": "plasma level, Antifactor Xa", "setting": "[1]; Test 2b: iontophoresis, PEBAX MV 1041 membrane, 20 mg, 8 hours, 30.00 h", "value": 0.04, "unit": "units/ml"}, {"measurement": "plasma level, Antifactor Xa", "setting": "[1]; Test 2b: iontophoresis, PEBAX MV 1041 membrane, 20 mg, 8 hours, […]", "value": 0.61, "unit": "units/ml"}, {"measurement": "plasma level, Antifactor Xa", "setting": "[1]; Test 2c: reference iontophoresis, no membrane, 20 mg, 8 hours", "value": 0.35, "unit": "units/ml"}, {"measurement": "plasma level, Antifactor Xa", "setting": "[1]; Test 2c: reference iontophoresis, no membrane, 20 mg, 8 hours, 0 h", "value": 0, "unit": "units/ml"}, {"measurement": "plasma level, Antifactor Xa", "setting": "[1]; Test 2c: reference iontophoresis, no membrane, 20 mg, 8 hours, 0.25 h", "value": 0.03, "unit": "units/ml"}, {"measurement": "plasma level, Antifactor Xa", "setting": "[1]; Test 2c: reference iontophoresis, no membrane, 20 mg, 8 hours, 0.50 h", "value": 0.05, "unit": "units/ml"}, {"measurement": "plasma level, Antifactor Xa", "setting": "[1]; Test 2c: reference iontophoresis, no membrane, 20 mg, 8 hours, 1.00 h", "value": 0.09, "unit": "units/ml"}, {"measurement": "plasma level, Antifactor Xa", "setting": "[1]; Test 2c: reference iontophoresis, no membrane, 20 mg, 8 hours, 2.00 h", "value": 0.13, "unit": "units/ml"}, {"measurement": "plasma level, Antifactor Xa", "setting": "[1]; Test 2c: reference iontophoresis, no membrane, 20 mg, 8 hours, 4.00 h", "value": 0.27, "unit": "units/ml"}, {"measurement": "plasma level, Antifactor Xa", "setting": "[1]; Test 2c: reference iontophoresis, no membrane, 20 mg, 8 hours, 6.00 h", "value": 0.29, "unit": "units/ml"}, {"measurement": "plasma level, Antifactor Xa", "setting": "[1]; Test 2c: reference iontophoresis, no membrane, 20 mg, 8 hours, 10.00 h", "value": 0.34, "unit": "units/ml"}, {"measurement": "plasma level, Antifactor Xa", "setting": "[1]; Test 2c: reference iontophoresis, no membrane, 20 mg, 8 hours, 16.00 h", "value": 0.11, "unit": "units/ml"}, {"measurement": "plasma level, Antifactor Xa", "setting": "[1]; Test 2c: reference iontophoresis, no membrane, 20 mg, 8 hours, 24.00 h", "value": 0.08, "unit": "units/ml"}, {"measurement": "plasma level, Antifactor Xa", "setting": "[1]; Test 2c: reference iontophoresis, no membrane, 20 mg, 8 hours, 30.00 h", "value": 0.01, "unit": "units/ml"}, {"measurement": "plasma level, Antifactor Xa", "setting": "[1]; Test 2c: reference iontophoresis, no membrane, 20 mg, 8 hours, […]", "value": 0.14, "unit": "units/ml"}, {"measurement": "plasma level, Antifactor Xa", "setting": "[1]; Test 2d: subcutaneous injection 0.200 mg/kg, 0 h", "value": 0, "unit": "units/ml"}, {"measurement": "plasma level, Antifactor Xa", "setting": "[1]; Test 2d: subcutaneous injection 0.200 mg/kg, 0.25 h", "value": 0.11, "unit": "units/ml"}, {"measurement": "plasma level, Antifactor Xa", "setting": "[1]; Test 2d: subcutaneous injection 0.200 mg/kg, 0.50 h", "value": 0.13, "unit": "units/ml"}, {"measurement": "plasma level, Antifactor Xa", "setting": "[1]; Test 2d: subcutaneous injection 0.200 mg/kg, 1.00 h", "value": 0.17, "unit": "units/ml"}, {"measurement": "plasma level, Antifactor Xa", "setting": "[1]; Test 2d: subcutaneous injection 0.200 mg/kg, 2.00 h", "value": 0.22, "unit": "units/ml"}, {"measurement": "plasma level, Antifactor Xa", "setting": "[1]; Test 2d: subcutaneous injection 0.200 mg/kg, 4.00 h", "value": 0.26, "unit": "units/ml"}, {"measurement": "plasma level, Antifactor Xa", "setting": "[1]; Test 2d: subcutaneous injection 0.200 mg/kg, 6.00 h", "value": 0.24, "unit": "units/ml"}, {"measurement": "plasma level, Antifactor Xa", "setting": "[1]; Test 2d: subcutaneous injection 0.200 mg/kg, 8.00 h", "value": 0.15, "unit": "units/ml"}, {"measurement": "plasma level, Antifactor Xa", "setting": "[1]; Test 2d: subcutaneous injection 0.200 mg/kg, 10.00 h", "value": 0.12, "unit": "units/ml"}, {"measurement": "plasma level, Antifactor Xa", "setting": "[1]; Test 2d: subcutaneous injection 0.200 mg/kg, 16.00 h", "value": 0.06, "unit": "units/ml"}, {"measurement": "plasma level, Antifactor Xa", "setting": "[1]; Test 2d: subcutaneous injection 0.200 mg/kg, 24.00 h", "value": 0.00, "unit": "units/ml"}, {"measurement": "plasma level, Antifactor Xa", "setting": "[1]; Test 2d: subcutaneous injection 0.200 mg/kg, 30.00 h", "value": 0.00, "unit": "units/ml"}, {"measurement": "plasma level, Antifactor Xa", "setting": "[1]; Test 2d: subcutaneous injection 0.200 mg/kg, […]", "value": 0.06, "unit": "units/ml"}, {"measurement": "antifactor Xa activity", "setting": "factor Xa", "value": "0.65 \"Golden Standard\" units per microgram"}]}]}
